# Measurements from US20250109127A1, “METHODS OF USE OF PHENOXYPROPYLAMINE COMPOUNDS TO TREAT DEPRESSION” (Minerva Neurosciences, Inc., priority 2013, published 2025).
# “And” between values parts separate entries of the source, which are not always exact repeats. Equal entries are not always repeated. Structures can show the parent of a compound that is named as a salt.
# Tested on: 5-HT release in the rat prefrontal cortex
# Assay: Microdialysis: 5-HT release in prefrontal cortex after I.P. administration
# Format: in vivo
# Conditions: for 5-HT release (% of basal levels) measured in dialysates: individual animals, hydrochloride, 3 mg/kg; for 5-HT release (% of basal levels) measured in dialysates, MEAN / 5-HT (% of respective basal) MEAN: n = 8; for 5-HT (% of respective basal) MEAN: SON-117 group 0.1 mg/kg I.P.
# Procedure: The aim of the study was to evaluate, using microdialysis, the effects of an intraperitoneal (I.P.) administration in rats of three different doses of SON-117 on dopamine and its metabolites, serotonin and its metabolite (5-HIAA), and norepinephrine levels in prefrontal cortex.
# Thirty-two adult male Wistar rats were used for the whole study (4 groups of eight animals planned for the study, Table 1).
# Surgery was performed on rats weighing about 300 g at the beginning of the experiments. Rats were anaesthetized with Ketamine (50 mg/kg) & Xylazine (15 mg/kg) by intramuscular administration. The animals were placed in a stereotaxic apparatus in the flat-skull position at a constant setting of −3.3 mm between ear bars and the incisor bar. The animals were treated with a local anesthesic (xylocaine 1%, Astra Zeneca) and an analgesic (Temgesic, from Schering Plough, 0.05 mg/kg, s.c.). A rostrocaudal midline incision was made with a lancet to expose the dorsal skull surface. The “stereotaxic zero” was defined by the Bregma in accordance with Paxinos and Watson's atlas (1986). A hole was drilled in the skull with a drill and the meninges were pierced with a sterile needle to implant a CMA12 guide cannula which later received the dialysis probe.
# Coordinates used for implanting guide cannula in prefrontal cortex from Bregma were anteroposterior 3.7 mm, mediolateral 0.8 mm, and dorsoventral −2 mm (top of the probe was at −5 mm). The guide cannula was fixed to the skull with two stainless steel screws (1.88 mm outside diameter) anchored. An application of dental cement was added. A plastic collar allowed each animal to be tethered to a Swivel assembly of the CMA 120 awake animal system. Following surgery, rats were kept in individual cages and allowed to recover for a minimum of 3-5 days before the experimentation. The rats were handled and put in plastic bowl for 10 min at least every day to habituate the animals to their new environment for the dialysis. An I.P. administration with saline was also performed every day.
# Dialysis probes (CMA12/3 mm, membrane, 20 kD cut-off, Carnegie Medicine, Stockholm, Sweden), were carefully washed before inserting into the guide cannula. The wash was performed with the artificial cerebrospinal fluid (aCSF) medium (NaCl 147 mM, KCl 2.7 mM, CaCl2 1.2 mM, MgCl2 0.85 mM) at room temperature. The dialysis system was then equilibrated at 20° C. at a perfusion rate of 1 μl/min with a Carnegie pump (CMA100). All catheters (FEP tubing, internal volume of 1.2 μl/10 cm, and tubing adaptors) used for microdialysis were treated in the same conditions.
# The probes duly prepared were inserted into the guide cannula and the CMA120 Swivel assembly secured to the animal using a plastic collar. Flow through the dialysis probe with aCSF was maintained at a rate of 1 μl/min during the whole experimentation. The first four fractions (corresponding to 2 hours) were discarded to avoid the effects of parenchymal disturbance and to ensure that an approximate steady-state level was reached. Fractions were then collected over a period of 8.5 h during which time the animals remained quiet. The dialysates were automatically collected with an autosampler (microfraction collector CMA 140, Carnegie Medicin) and stored at −80° C. until analysis. […] Perfusion was then maintained for 7 hours with aCSF. The dialysates (30 μl) were collected into 300 μl vials, transferred into dry ice and then kept frozen (−80° C.) until analysis. Frozen samples were shipped to a partner for analysis. At the end of the microdialysis study, a PBS with colored ink was perfused through the probe in order to visualize the dialyzed area.
# Catecholamine assay: Concentrations of dopamine, DOPAC, HVA, 5-HIAA, 5-HT, and norepinephrin were determined for each sample by HPLC coupled with electrochemical detection. […]
# [1] = SON-117 3 mg/kg IP, T1 h 30-T2 h
# [2] = SON-117 3 mg/kg IP, T1 h-T1 h 30
# [3] = SON-117 3 mg/kg IP, T2 h 30-T3 h
# [4] = SON-117 3 mg/kg IP, T2 h-T2 h 30
# [5] = SON-117 3 mg/kg IP, T3 h 30-T4 h
# [6] = SON-117 3 mg/kg IP, T3 h-T3 h 30
# [7] = SON-117 3 mg/kg IP, T4 h 30-T5 h
# [8] = SON-117 3 mg/kg IP, T4 h-T4 h 30
# [9] = SON-117 3 mg/kg IP, T5 h 30-T6 h
# [10] = SON-117 3 mg/kg IP, T5 h-T5 h 30
# [11] = SON-117 3 mg/kg IP, T6 h 30-T7 h
# [12] = SON-117 3 mg/kg IP, T6 h-T6 h 30
# [13] = SON-117 3 mg/kg IP, T-1 h 30-T-1 h (pre-administration)
smiles,measurement,setting,value
"Cc1nnc(-c2cc3c(OC[C@@H](O)CN4CCC(c5ccc(Cl)c(Cl)c5)CC4)cccc3o2)o1 [SON-117, (S)-1-(4-(3,4-dichlorophenyl)piperidino)-3-(2-(5-methyl-1,3,4-oxadiazol-2-yl)benzo(b)furan-4-yloxy)-2-propanol hydrochloride]",5-HT release (% of basal levels) measured in dialysates,"SON-117 3 mg/kg IP, T30-T1 h",204.22 % of basal levels and 162.26 % of basal levels and 105.16 % of basal levels and 123.52 % of basal levels and 121.85 % of basal levels and 66.82 % of basal levels and 90.61 % of basal levels and 103.58 % of basal levels
same,"5-HT release (% of basal levels) measured in dialysates, MEAN",[1],172.47 % of basal levels
same,5-HT release (% of basal levels) measured in dialysates,[1],272.64 % of basal levels and 219.61 % of basal levels and 141.23 % of basal levels and 159.07 % of basal levels and 135.20 % of basal levels and 206.96 % of basal levels and 105.40 % of basal levels and 139.63 % of basal levels
same,"5-HT release (% of basal levels) measured in dialysates, MEAN",[2],139.57 % of basal levels
same,5-HT release (% of basal levels) measured in dialysates,[2],205.53 % of basal levels and 81.50 % of basal levels and 112.86 % of basal levels and 110.90 % of basal levels and 126.82 % of basal levels and 127.44 % of basal levels and 170.45 % of basal levels and 181.06 % of basal levels
same,"5-HT release (% of basal levels) measured in dialysates, MEAN",[3],134.29 % of basal levels
same,5-HT release (% of basal levels) measured in dialysates,[3],158.52 % of basal levels and 136.53 % of basal levels and 84.73 % of basal levels and 118.94 % of basal levels and 141.58 % of basal levels and 105.71 % of basal levels and 168.18 % of basal levels and 160.12 % of basal levels
same,"5-HT release (% of basal levels) measured in dialysates, MEAN",[4],134.68 % of basal levels
same,5-HT release (% of basal levels) measured in dialysates,[4],125.58 % of basal levels and 163.25 % of basal levels and 90.55 % of basal levels and 143.00 % of basal levels and 145.36 % of basal levels and 158.14 % of basal levels and 116.88 % of basal levels
same,"5-HT release (% of basal levels) measured in dialysates, MEAN",[5],122.79 % of basal levels
same,5-HT release (% of basal levels) measured in dialysates,[5],112.86 % of basal levels and 166.51 % of basal levels and 77.19 % of basal levels and 149.84 % of basal levels and 120.64 % of basal levels and 72.84 % of basal levels and 159.63 % of basal levels
same,"5-HT release (% of basal levels) measured in dialysates, MEAN",[6],131.57 % of basal levels
same,5-HT release (% of basal levels) measured in dialysates,[6],178.23 % of basal levels and 97.99 % of basal levels and 78.86 % of basal levels and 198.09 % of basal levels and 131.52 % of basal levels and 75.85 % of basal levels and 160.43 % of basal levels
same,"5-HT release (% of basal levels) measured in dialysates, MEAN",[7],263.96 % of basal levels
same,5-HT release (% of basal levels) measured in dialysates,[7],119.63 % of basal levels and 88.15 % of basal levels and 75.09 % of basal levels and 174.97 % of basal levels and 117.70 % of basal levels and 1179.79 % of basal levels and 92.36 % of basal levels
same,"5-HT release (% of basal levels) measured in dialysates, MEAN",[8],118.76 % of basal levels
same,5-HT release (% of basal levels) measured in dialysates,[8],40.46 % of basal levels and 171.66 % of basal levels and 76.54 % of basal levels and 186.25 % of basal levels and 112.71 % of basal levels and 98.26 % of basal levels and 145.41 % of basal levels
same,"5-HT release (% of basal levels) measured in dialysates, MEAN",[9],150.50 % of basal levels
same,5-HT release (% of basal levels) measured in dialysates,[9],121.53 % of basal levels and 146.21 % of basal levels and 238.25 % of basal levels and 159.31 % of basal levels and 72.12 % of basal levels and 135.51 % of basal levels and 180.58 % of basal levels
same,"5-HT release (% of basal levels) measured in dialysates, MEAN",[10],176.38 % of basal levels
same,5-HT release (% of basal levels) measured in dialysates,[10],118.62 % of basal levels and 189.63 % of basal levels and 161.82 % of basal levels and 191.70 % of basal levels and 132.84 % of basal levels and 100.25 % of basal levels and 410.45 % of basal levels and 105.75 % of basal levels
same,"5-HT release (% of basal levels) measured in dialysates, MEAN",[11],172.13 % of basal levels
same,5-HT release (% of basal levels) measured in dialysates,[11],146.14 % of basal levels and 156.41 % of basal levels and 213.64 % of basal levels and 136.73 % of basal levels and 298.30 % of basal levels and 107.87 % of basal levels and 145.86 % of basal levels
same,"5-HT release (% of basal levels) measured in dialysates, MEAN",[12],156.40 % of basal levels
same,5-HT release (% of basal levels) measured in dialysates,[12],135.63 % of basal levels and 218.45 % of basal levels and 123.22 % of basal levels and 169.93 % of basal levels and 132.54 % of basal levels and 87.76 % of basal levels and 130.92 % of basal levels and 252.75 % of basal levels
same,"5-HT release (% of basal levels) measured in dialysates, MEAN","SON-117 3 mg/kg IP, T-30 min-T0 (pre-administration)",97.07 % of basal levels
same,"5-HT release (% of basal levels) measured in dialysates, MEAN",[13],101.16 % of basal levels
same,5-HT release (% of basal levels) measured in dialysates,[13],104.98 % of basal levels and 84.68 % of basal levels and 89.82 % of basal levels
same,"5-HT release (% of basal levels) measured in dialysates, MEAN","SON-117 3 mg/kg IP, T-1 h-T-30 min (pre-administration)",102.92 % of basal levels
same,"5-HT concentrations in prefrontal cortex, significant increase, max.","SON-117 3 mg/kg IP, from 2 h to 3 h",175%
same,"5-HT concentrations in prefrontal cortex, significant increase","SON-117 3 mg/kg IP, from 5.5 h to 7 h",272%
same,"5-HT release, increase still present","SON-117 3 mg/kg, 7 h after administration",183%
same,levels of 5-HT compared to the citalopram treated group (significant),"SON-117 3 mg/kg, at 1 h",slightly lower
same,"5-HT release, maximum increase observed","SON-117 3 mg/kg, at 5 h",272%
same,levels of 5-HT compared to the citalopram treated group (significant),"SON-117 3 mg/kg, at 5 h and 7 h",higher
same,5-HT (% of respective basal) MEAN,T0-T30 min,128.89 % of respective basal
same,5-HT (% of respective basal) MEAN,T30-T1 h,123.42 % of respective basal
same,5-HT (% of respective basal) MEAN,T1 h 30-T2 h,167.52 % of respective basal
same,5-HT (% of respective basal) MEAN,T1 h-T1 h 30,176.03 % of respective basal
same,5-HT (% of respective basal) MEAN,T2 h 30-T3 h,215.80 % of respective basal
same,5-HT (% of respective basal) MEAN,T2 h-T2 h 30,370.70 % of respective basal
same,5-HT (% of respective basal) MEAN,T3 h 30-T4 h,151.83 % of respective basal
same,5-HT (% of respective basal) MEAN,T3 h-T3 h 30,156.53 % of respective basal
same,5-HT (% of respective basal) MEAN,T4 h 30-T5 h,296.70 % of respective basal
same,5-HT (% of respective basal) MEAN,T4 h-T4 h 30,350.16 % of respective basal
same,5-HT (% of respective basal) MEAN,T5 h 30-T6 h,250.07 % of respective basal
same,5-HT (% of respective basal) MEAN,T5 h-T5 h 30,310.25 % of respective basal
same,5-HT (% of respective basal) MEAN,T6 h 30-T7 h,253.10 % of respective basal
same,5-HT (% of respective basal) MEAN,T6 h-T6 h 30,254.62 % of respective basal
same,5-HT (% of respective basal) MEAN,T-30 min-T0 (before administration),112.68 % of respective basal
same,5-HT (% of respective basal) MEAN,T-1 h 30-T-1 h (before administration),80.63 % of respective basal
same,5-HT (% of respective basal) MEAN,T-1 h-T-30 min (before administration),106.27 % of respective basal
